{"source": "patent US20260232554A1", "about": "“ORAL CARE AGENT WITH DIMETHYLGLYCINE” (Dr. Kurt Wolff GmbH & Co. KG, priority 2023, published 2026)", "assay_type_in_all_cases": "cell-based, human", "key": {"HaCaT cells [1]": {"system": "HaCaT cells", "experiment": "MTT assay, cell viability", "conditions": "after 48 h and 72 h of cultivation, versus control without DMG", "experimental": "(§1) As part of an in vitro study, the effect of sodium dimethylglycinate was investigated in a cell culture model with human keratin-forming keratinocyte cells. For this purpose, HaCaT cells were cultured for 1, 3, 5 and 7 days in DMEM medium (including fetal calf serum and an antibiotic-antimycotic mix) and the viability, proliferation and migration of the cells were determined using suitable measurement methods and the expression of growth factors relevant for cell growth was determined.\nFor this measurement, a so-called MTT assay was used to determine cellular metabolic activity as an indicator of cell viability and cytotoxicity. This colorimetric assay is based on the reduction of a yellow tetrazolium salt (3-(4,5-dimethylthiazol-2-yl)-2,5-diphenyltetrazolium bromide or MTT) to purple formazan crystals by metabolically active cells.\n(§2) Human epidermal keratinocyte cells (HaCaT) were seeded in a 96-well plate at a cell density of 5,000 cells/well and cultured in medium (DMEM with 10% FBS, 1% penicillin-streptomycin, 0.5% fungizone). On the next day and after a further 24 h, 48 h and 72 h of cultivation at 37° C. and 5 vol. % CO2, the cell culture medium without (control) or with the respective concentrations of sodium dimethylglycinate (DMG) already contained was changed. […]"}, "Interleukin-6 (IL-6)": {"system": "Interleukin-6 (IL-6)", "experiment": "IL-6 gene expression by qRT-PCR after cytokine-induced inflammation", "conditions": "HaCaT; 25 ng/ml TNFα and 25 ng/ml IFNγ; DMG 0.005%-0.00005%; 24 h; versus positive control of inflammation induction", "experimental": "Interleukin-6 (IL-6) is a peptide hormone of the immune system from the group of pro-inflammatory interleukins and plays a key role in the non-specific, innate immune response. Gene expression was measured using a standard method known as quantitative real-time PCR (qRT-PCR).\nHuman epidermal keratinocyte cells (HaCaT) were seeded in a 6-well plate at a cell density of 140,000 cells/well and cultured in medium (DMEM with 10% FBS, 1% penicillin-streptomycin, 0.5% fungizone) at 37° C. and 5 vol % CO2. On the next day, cytokine treatment (25 ng/ml tumor necrosis factor-alpha (TNFα) and 25 ng/ml interferon-gamma (IFNγ)) was used to induce cell inflammation. […] with the different DMG drug concentrations (inflammation induction+DMG 0.005%−0.00005%) or without DMG (positive control of inflammation induction). In parallel, cells were treated without any treatment (control) or only with the different DMG drug concentrations (DMG 0.005%−0.00005%) and the cells were harvested after 24 h for gene expression analysis. Gene expression was measured using qRT-PCR based on previously published studies in B. V. Diaz, M.-C. Lenoir, A. Ladoux, C. Frelin, M. Démarchez, S. Michel, Journal of Biological Chemistry 2000, 275, 642-650."}, "HaCaT cells [2]": {"system": "HaCaT cells", "experiment": "wound healing assay, migration", "conditions": "images after 16 h, 20 h and 24 h, different DMG concentrations, versus control without DMG", "experimental": "as §1\nA so-called wound healing assay was used to measure migration, based on previously published studies in T. Kawabata, T. Otsuka, K. Fujita, G. Sakai, R. Matsushima-Nishiwaki, O. Kozawa, H. Tokuda, International journal of molecular medicine 2018, 42, 3149-3156. The principle is based on measuring the migration of cells to a not yet colonized cultivation surface over time. For this purpose, 20,000 cells each were seeded into two adjacent wells or cavities separated by a silicone insert (with standardized width) and cultivated in medium (DMEM with 5% FBS, 1% penicillin-streptomycin, 0.5% fungizone) for 48 h at 37° C. and 5 vol % CO2. The plastic insert was then removed (“creation of the wound”) and the migration of the cells was documented by determining the cultivation surface not colonized with cells over time using images. […]"}, "VEGF": {"system": "VEGF", "experiment": "VEGF gene expression by qRT-PCR", "conditions": "HaCaT; after 24 h of cultivation; versus control without DMG", "experimental": "VEGF (vascular endothelial growth factor) promotes the growth and formation of new blood and lymph vessels. Gene expression was measured using a standard method known as quantitative real-time PCR (qRT-PCR).\nHuman epidermal keratinocyte cells (HaCaT) were seeded in a 6-well plate at a cell density of 140,000 cells/well and cultured in medium (DMEM with 10% FBS, 1% penicillin-streptomycin, 0.5% fungizone) at 37° C. and 5 vol % CO2. On the next day, the cell culture medium without (control) or with the respective concentrations of active substance already contained was changed and the cells were harvested after 24 hours. Gene expression was measured using qRT-PCR based on previously published studies in B. V. Diaz, M.-C. Lenoir, A. Ladoux, C. Frelin, M. Demarchez, S. Michel, Journal of Biological Chemistry 2000, 275, 642-650."}, "HaCaT cells [3]": {"system": "HaCaT cells", "experiment": "CyQUANT assay, cell proliferation", "conditions": "after 48 h and 72 h of cultivation, versus control without DMG", "experimental": "as §1\nA so-called CyQUANT assay was used to measure proliferation. In this fluorescence-based assay, the fluorescent dye used binds to DNA (deoxyribonucleic acid), whereby the content of cellular DNA is a direct measure of the number of cells within a sample.\nas §2, with “active substance” for “sodium dimethylglycinate (DMG)”"}}}
{"smiles": "CN(C)CC(=O)[O-].[Na+]", "note": "[DMG, sodium dimethylglycinate]", "values": [{"measurement": "cell viability (MTT, absorption normalized to control at 24 h)", "setting": "HaCaT cells [1]", "value": "clear increase"}, {"measurement": "expression of interleukin-6 induced by cytokine treatment", "setting": "Interleukin-6 (IL-6)", "value": "dose-dependently reduced"}, {"measurement": "migration or wound closure", "setting": "HaCaT cells [2]", "value": "significantly faster"}, {"measurement": "relative gene expression of VEGF (normalized to GAPDH)", "setting": "VEGF", "value": "significant increase"}, {"measurement": "cell proliferation (CyQUANT, fluorescence normalized to control at 24 h)", "setting": "HaCaT cells [3]", "value": "clear increase"}]}
